Results from patent US20060019855A1, “Composition for a bactericidal, disinfecting, and cleansing foam agent” (priority 2004, published 2006).

Key:
Assay in all cases: Antibacterial effect test
[1] = system: Staphylococcus aureus ATCC25923; format: cell-based; details: for antibacterial effects (in words): S. aureus
Protocol: (§1) Antibacterial Effect Test
(§2) Composition of Example 1: The composition of Example 1 was filled in a pump foamer (manufactured by DAIWA CAN COMPANY).
(§3) Ethanol gel: A hand cleansing gel made by […] CO. LTD. (ethanol content: 70%, formulated with aloe extract).
Staphylococcus aureus ATCC25923
Nutrient Agar (Difco) was employed for S. aureus ATCC25923.
(§4) 1) The respective strains were incubated overnight in TSB at 37° C. The bacterial suspensions were diluted with physiologic saline to have a concentration of approximately 10^4 CFU/ml each.
(§5) 2) Next, 4.5 g each of the test samples were added to dishes (Composition of Example 1 and Control composition were added in a foamed state.). Thereafter, 0.5 ml each of the bacterial suspensions obtained in the process 1) was inoculated thereinto and mixed well. For every combination (12 combinations in total) of the four test samples and the three bacterial suspensions, two sample dishes were prepared in this manner.
(§6) 3) Regarding the first ones of these sample dishes, the number of bacteria was counted immediately after inoculation of the bacterial suspensions, and also after one and two hours of incubation at 37° C. For incubation, the dishes were put in an incubator, with the lids slightly open. To count the number of bacteria of each strain, two agar media were respectively inoculated with 0.1 ml of the bacterial suspension and incubated for 24 hours at 37° C. Later, the number of colonies in both agar media was counted and averaged.
(§7) 4) The second ones of the sample dishes prepared in the process 2) were incubated for two hours at 37° C. after inoculation of the bacterial suspensions. Thereafter, 0.5 ml each of the corresponding bacterial suspensions was again inoculated thereinto and mixed well. The number of bacteria was counted immediately after reinoculation of the bacterial suspensions, and also after one and two hours of incubation at 37° C., in the same manner as in the process 3).
(§8) In Tables 2-4, “B” indicates the theoretical number of bacteria in the mixtures of the bacterial suspensions and the test samples. The symbol “*” indicates reinoculation.

[2] = system: Escherichia coli FMK1254; format: cell-based; details: for antibacterial effects (in words): E. coli
Protocol: as §1, §2, §3
(§9) MacConkey Agar (Difco) was employed for E. coli FMK1254 and Pathogenic E. coli 0157:H7 SAKAI.
as §4, §5, §6, §7, §8

[3] = system: Pathogenic E. coli O157:H7 Sakai; format: cell-based, Escherichia coli; details: for number of bacteria: Pathogenic E. coli O157:H7 Sakai; for antibacterial effects (in words): pathogenic E. coli
Protocol: as §1, §2
Ethanol gel: A hand cleansing gel made by FUMAKILLA CO. LTD. (ethanol content: 70%, formulated with aloe extract).
Pathogenic Escherichia coli 0157:H7 Sakai
as §9, §4, §5, §6, §7, §8

[4] = after two hours of reinoculation

## CCO [70% Ethanol, Ethanol]
[1]; S. aureus ATCC25923, 1 hour at 37° C. after inoculation
  number of bacteria: ≦9 CFU/ml
[1]; S. aureus ATCC25923, 1 hour at 37° C. after reinoculation
  number of bacteria: 75 CFU/ml
[1]; S. aureus ATCC25923, 2 hours at 37° C. after inoculation
  number of bacteria: ≦9 CFU/ml
[1]; S. aureus ATCC25923, 2 hours at 37° C. after reinoculation
  number of bacteria: 45 CFU/ml
[1]; S. aureus ATCC25923, immediately after inoculation (0)
  number of bacteria: ≦9 CFU/ml
[1]; S. aureus ATCC25923, immediately after reinoculation (0*)
  number of bacteria: 180 CFU/ml
[1]; after two hours of inoculation
  antibacterial effects (in words): excellent
[1]; [4]
  antibacterial effects (in words): not sufficient
[2]; E. coli FMK1254, 1 hour at 37° C. after reinoculation
  number of bacteria: 4095 CFU/ml
[2]; E. coli FMK1254, 1 hour of incubation at 37° C. after inoculation
  number of bacteria: ≦9 CFU/ml
[2]; E. coli FMK1254, 2 hours at 37° C. after reinoculation
  number of bacteria: 2195 CFU/ml
[2]; E. coli FMK1254, 2 hours of incubation at 37° C. after inoculation
  number of bacteria: ≦9 CFU/ml
[2]; E. coli FMK1254, immediately after inoculation (0)
  number of bacteria: ≦9 CFU/ml
[2]; E. coli FMK1254, immediately after reinoculation (0*)
  number of bacteria: 2280 CFU/ml
[2]; after two hours of inoculation
  antibacterial effects (in words): excellent
[2]; [4]
  antibacterial effects (in words): totally lost
[3]; 1 hour at 37° C. after inoculation
  number of bacteria: ≦9 CFU/ml
[3]; 1 hour at 37° C. after reinoculation
  number of bacteria: ≧30000 CFU/ml
[3]; 2 hours at 37° C. after inoculation
  number of bacteria: ≦9 CFU/ml
[3]; 2 hours at 37° C. after reinoculation
  number of bacteria: ≧30000 CFU/ml
[3]; immediately after inoculation (0)
  number of bacteria: ≦9 CFU/ml
[3]; immediately after reinoculation (0*)
  number of bacteria: ≧30000 CFU/ml
[3]; after two hours of inoculation
  antibacterial effects (in words): excellent
[3]; [4]
  antibacterial effects (in words): totally lost
